Results reported in PubChem BioAssay (NCI).
Several values for one entry are separate records, joined by “and”; a condition that tells them apart may be missing. Equal entries are not always repeated.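 Cells were grown in 96-well plates and exposed to each compound for 48 hours at five concentrations; endpoints were interpolated linearly between bracketing concentrations, or set to the highest concentration if not reached. GI50 = concentration required for 50% inhibition of growth. TGI: total growth inhibition.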

Experiments:
Test in all cases: inhibition of tumour cell growth, NCI panel, 48 h; in the data active = GI50 below about 0.43 µM; inactive = the rest
786-0 renal = test system: 786-0 renal
A498 renal = test system: A498 renal
A549 NSCLC = test system: A549 NSCLC
ACHN renal = test system: ACHN renal
CAKI-1 renal = test system: CAKI-1 renal
CCRF-CEM leukemia = test system: CCRF-CEM leukemia
COLO 205 colon = test system: COLO 205 colon
DU-145 prostate = test system: DU-145 prostate
EKVX NSCLC = test system: EKVX NSCLC
HCC-2998 colon = test system: HCC-2998 colon
HCT-116 colon = test system: HCT-116 colon
HCT-15 colon = test system: HCT-15 colon
HL-60(TB) leukemia = test system: HL-60(TB) leukemia
HOP-62 NSCLC = test system: HOP-62 NSCLC
HOP-92 NSCLC = test system: HOP-92 NSCLC
HS 578T breast = test system: HS 578T breast
HT29 colon = test system: HT29 colon
K-562 leukemia = test system: K-562 leukemia
KM12 colon = test system: KM12 colon
LOX IMVI melanoma = test system: LOX IMVI melanoma
M14 melanoma = test system: M14 melanoma
MALME-3M melanoma = test system: MALME-3M melanoma
MDA-MB-231 breast = test system: MDA-MB-231 breast
MDA-MB-435 = test system: MDA-MB-435
MDA-N = test system: MDA-N
MOLT-4 leukemia = test system: MOLT-4 leukemia
NCI-H226 lung = test system: NCI-H226 lung
NCI-H23 lung = test system: NCI-H23 lung
NCI-H460 lung = test system: NCI-H460 lung
NCI/ADR-RES ovarian = test system: NCI/ADR-RES ovarian
OVCAR-3 ovarian = test system: OVCAR-3 ovarian
OVCAR-4 ovarian = test system: OVCAR-4 ovarian
OVCAR-5 ovarian = test system: OVCAR-5 ovarian
OVCAR-8 ovarian = test system: OVCAR-8 ovarian
PC-3 prostate = test system: PC-3 prostate
RPMI-8226 leukemia = test system: RPMI-8226 leukemia
SF-268 CNS = test system: SF-268 CNS
SF-295 CNS = test system: SF-295 CNS
SF-539 CNS = test system: SF-539 CNS
SK-MEL-2 melanoma = test system: SK-MEL-2 melanoma
SK-MEL-28 melanoma = test system: SK-MEL-28 melanoma
SK-MEL-5 melanoma = test system: SK-MEL-5 melanoma
SK-OV-3 ovarian = test system: SK-OV-3 ovarian
SN12C renal = test system: SN12C renal
SNB-19 CNS = test system: SNB-19 CNS
SNB-75 CNS = test system: SNB-75 CNS
SR leukemia = test system: SR leukemia
SW-620 colon = test system: SW-620 colon
T-47D breast = test system: T-47D breast
TK-10 renal = test system: TK-10 renal
U251 CNS = test system: U251 CNS
UACC-257 melanoma = test system: UACC-257 melanoma
UACC-62 melanoma = test system: UACC-62 melanoma
UO-31 renal = test system: UO-31 renal
IGROV1 ovarian = test system: IGROV1 ovarian
MCF7 breast = test system: MCF7 breast
NCI-H522 lung = test system: NCI-H522 lung
RXF 393 renal = test system: RXF 393 renal
BT-549 breast = test system: BT-549 breast

C/C(=N\NC(N)=S)c1ccc2c(c1)Sc1ccccc1O2
0.00721 mM: TGI (SNB-75 CNS)
0.0395 mM: TGI (SK-OV-3 ovarian)
0.0135 mM: TGI (A549 NSCLC)
0.0283 mM: TGI (UO-31 renal)
0.00863 mM: TGI (A498 renal)
0.0118 mM: TGI (NCI-H460 lung)
0.00683 mM: TGI (SK-MEL-5 melanoma)
0.00231 mM: TGI (MDA-N)
0.0699 mM: TGI (SK-MEL-28 melanoma)
0.028 mM: TGI (HOP-92 NSCLC)
0.0307 mM: TGI (TK-10 renal)
0.0288 mM: TGI (PC-3 prostate)
0.0164 mM: TGI (RPMI-8226 leukemia)
0.00465 mM: TGI (HCC-2998 colon)
0.0437 mM: TGI (ACHN renal)
0.0123 mM: TGI (UACC-62 melanoma)
0.00716 mM: TGI (OVCAR-8 ovarian)
0.00095 mM: TGI (MDA-MB-435)
0.029 mM: TGI (HOP-62 NSCLC)
0.00836 mM: TGI (SF-268 CNS)
0.00728 mM: TGI (COLO 205 colon)
0.0791 mM: TGI (NCI-H23 lung)
0.0136 mM: TGI (EKVX NSCLC)
0.00583 mM: TGI (HT29 colon)
0.00699 mM: TGI (SK-MEL-2 melanoma)
0.0257 mM: TGI (786-0 renal)
0.0117 mM: TGI (U251 CNS)
0.0243 mM: TGI (HCT-116 colon)
0.00479 mM: TGI (SF-539 CNS)
0.0131 mM: TGI (LOX IMVI melanoma)
0.0106 mM: TGI (NCI/ADR-RES ovarian)
0.00452 mM: TGI (OVCAR-3 ovarian)
> 0.1 mM: TGI (CCRF-CEM leukemia) | TGI (DU-145 prostate) | TGI (HL-60(TB) leukemia) | TGI (HS 578T breast) | TGI (K-562 leukemia) | TGI (KM12 colon) | TGI (M14 melanoma) | TGI (MALME-3M melanoma) | TGI (MDA-MB-231 breast) | TGI (MOLT-4 leukemia) | TGI (NCI-H226 lung) | TGI (OVCAR-5 ovarian) | TGI (SF-295 CNS) | TGI (SN12C renal) | TGI (SNB-19 CNS) | TGI (SR leukemia) | TGI (SW-620 colon) | TGI (T-47D breast) | TGI (UACC-257 melanoma)
0.00463 mM: TGI (HCT-15 colon)
0.0571 mM: TGI (OVCAR-4 ovarian)
0.00437 mM: TGI (CAKI-1 renal)

CC#Cc1ccc(-c2ccccc2)s1
> 0.1 mM: TGI (786-0 renal) | TGI (A498 renal) | TGI (A549 NSCLC) | TGI (ACHN renal) | TGI (CAKI-1 renal) | TGI (CCRF-CEM leukemia) | TGI (COLO 205 colon) | TGI (DU-145 prostate) | TGI (EKVX NSCLC) | TGI (HCT-116 colon) | TGI (HCT-15 colon) | TGI (HL-60(TB) leukemia) | TGI (HOP-92 NSCLC) | TGI (HS 578T breast) | TGI (HT29 colon) | TGI (IGROV1 ovarian) | TGI (KM12 colon) | TGI (LOX IMVI melanoma) | TGI (M14 melanoma) | TGI (MCF7 breast) | TGI (MDA-MB-231 breast) | TGI (MDA-MB-435) | TGI (MDA-N) | TGI (MOLT-4 leukemia) | TGI (NCI-H226 lung) | TGI (NCI-H23 lung) | TGI (NCI-H460 lung) | TGI (NCI-H522 lung) | TGI (NCI/ADR-RES ovarian) | TGI (OVCAR-3 ovarian) | TGI (OVCAR-4 ovarian) | TGI (OVCAR-5 ovarian) | TGI (OVCAR-8 ovarian) | TGI (PC-3 prostate) | TGI (RXF 393 renal) | TGI (SF-268 CNS) | TGI (SF-295 CNS) | TGI (SF-539 CNS) | TGI (SK-MEL-2 melanoma) | TGI (SK-MEL-28 melanoma) | TGI (SK-MEL-5 melanoma) | TGI (SN12C renal) | TGI (SNB-19 CNS) | TGI (SNB-75 CNS) | TGI (SR leukemia) | TGI (SW-620 colon) | TGI (TK-10 renal) | TGI (U251 CNS) | TGI (UACC-257 melanoma) | TGI (UACC-62 melanoma) | TGI (UO-31 renal)

O=C(O)C(Cl)Cl
inactive: GI50 (786-0 renal) 5.69 mM and > 10 mM | GI50 (A498 renal) 2.67 mM and > 10 mM | GI50 (A549 NSCLC) 7.56 mM and > 10 mM | GI50 (ACHN renal) 5.7 mM and > 10 mM | GI50 (BT-549 breast) 2.78 mM and > 8.92 mM | GI50 (CAKI-1 renal) 5.49 mM and > 10 mM | GI50 (CCRF-CEM leukemia) 4.92 mM and > 4.68 mM | GI50 (COLO 205 colon) > 10 mM | GI50 (DU-145 prostate) 5.72 mM and > 10 mM | GI50 (EKVX NSCLC) > 10 mM | GI50 (HCC-2998 colon) > 10 mM | GI50 (HCT-116 colon) 6.7 mM and > 10 mM | GI50 (HCT-15 colon) 6.68 mM and > 10 mM | GI50 (HL-60(TB) leukemia) 7.27 mM and > 7.66 mM | GI50 (HOP-62 NSCLC) > 10 mM | GI50 (HOP-92 NSCLC) 3.63 mM and > 10 mM | GI50 (HS 578T breast) 3.09 mM and > 10 mM | GI50 (HT29 colon) 7.2 mM and > 10 mM | GI50 (IGROV1 ovarian) > 10 mM | GI50 (K-562 leukemia) 6.3 mM and > 10 mM | GI50 (KM12 colon) > 10 mM | GI50 (LOX IMVI melanoma) 7.49 mM and > 10 mM | GI50 (M14 melanoma) > 10 mM | GI50 (MALME-3M melanoma) 2.5 mM and > 10 mM | GI50 (MCF7 breast) 5.56 mM and > 10 mM | GI50 (MDA-MB-231 breast) > 10 mM | GI50 (MDA-MB-435) 5.46 mM and > 10 mM | GI50 (MOLT-4 leukemia) 8.18 mM and > 8.7 mM | GI50 (NCI-H226 lung) 8.13 mM and > 10 mM | GI50 (NCI-H23 lung) > 10 mM | GI50 (NCI-H460 lung) 6.07 mM and > 10 mM | GI50 (NCI-H522 lung) 8.04 mM and > 10 mM | GI50 (NCI/ADR-RES ovarian) 7.66 mM and > 10 mM | GI50 (OVCAR-3 ovarian) 4.71 mM and > 10 mM | GI50 (OVCAR-4 ovarian) 3.3 mM and 8.52 mM | GI50 (OVCAR-5 ovarian) > 10 mM | GI50 (OVCAR-8 ovarian) > 10 mM | GI50 (PC-3 prostate) > 10 mM | GI50 (RPMI-8226 leukemia) 3.21 mM and > 9.4 mM | GI50 (RXF 393 renal) 5.14 mM and > 10 mM | GI50 (SF-268 CNS) 4.97 mM and > 10 mM | GI50 (SF-295 CNS) 4.23 mM and > 10 mM | GI50 (SF-539 CNS) > 10 mM | GI50 (SK-MEL-2 melanoma) 8.2 mM and > 10 mM | GI50 (SK-MEL-28 melanoma) 3.15 mM and > 10 mM | GI50 (SK-MEL-5 melanoma) > 10 mM | GI50 (SK-OV-3 ovarian) > 10 mM | GI50 (SN12C renal) 8.18 mM and > 10 mM | GI50 (SNB-19 CNS) 7.52 mM and > 10 mM | GI50 (SNB-75 CNS) 3.5 mM and > 10 mM | GI50 (SR leukemia) > 10 mM | GI50 (SW-620 colon) > 10 mM | GI50 (T-47D breast) 4.1 mM and > 10 mM | GI50 (TK-10 renal) > 10 mM | GI50 (U251 CNS) 7.69 mM and > 10 mM | GI50 (UACC-257 melanoma) > 10 mM | GI50 (UACC-62 melanoma) 6.71 mM and > 10 mM | GI50 (UO-31 renal) 2.09 mM and > 6.87 mM
5.01 mM and > 9.34 mM: TGI (UO-31 renal)
> 10 mM: TGI (786-0 renal) | TGI (A498 renal) | TGI (A549 NSCLC) | TGI (ACHN renal) | TGI (BT-549 breast) | TGI (CAKI-1 renal) | TGI (CCRF-CEM leukemia) | TGI (COLO 205 colon) | TGI (DU-145 prostate) | TGI (EKVX NSCLC) | TGI (HCC-2998 colon) | TGI (HCT-116 colon) | TGI (HCT-15 colon) | TGI (HL-60(TB) leukemia) | TGI (HOP-62 NSCLC) | TGI (HOP-92 NSCLC) | TGI (HS 578T breast) | TGI (HT29 colon) | TGI (IGROV1 ovarian) | TGI (K-562 leukemia) | TGI (KM12 colon) | TGI (LOX IMVI melanoma) | TGI (M14 melanoma) | TGI (MALME-3M melanoma) | TGI (MCF7 breast) | TGI (MDA-MB-231 breast) | TGI (MDA-MB-435) | TGI (MOLT-4 leukemia) | TGI (NCI-H226 lung) | TGI (NCI-H23 lung) | TGI (NCI-H460 lung) | TGI (NCI-H522 lung) | TGI (NCI/ADR-RES ovarian) | TGI (OVCAR-3 ovarian) | TGI (OVCAR-4 ovarian) | TGI (OVCAR-5 ovarian) | TGI (OVCAR-8 ovarian) | TGI (PC-3 prostate) | TGI (RPMI-8226 leukemia) | TGI (RXF 393 renal) | TGI (SF-268 CNS) | TGI (SF-295 CNS) | TGI (SF-539 CNS) | TGI (SK-MEL-2 melanoma) | TGI (SK-MEL-28 melanoma) | TGI (SK-MEL-5 melanoma) | TGI (SK-OV-3 ovarian) | TGI (SN12C renal) | TGI (SNB-19 CNS) | TGI (SNB-75 CNS) | TGI (SR leukemia) | TGI (SW-620 colon) | TGI (T-47D breast) | TGI (TK-10 renal) | TGI (U251 CNS) | TGI (UACC-257 melanoma) | TGI (UACC-62 melanoma)
